Several values for one entry are separate records, joined by “and”; a condition that tells them apart may be missing. Equal values may be shown once. Toxic doses and inconclusive results are not listed.
Test system: CD2F1 mice, L1210 leukemia ip, survival T/C
Assay: NCI In Vivo Anticancer Drug Screen. Data for tumor model L1210 Leukemia (intraperitoneal) in CD2F1 (CDF1) mice
Settings: higher = longer survival
Outline: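 Mice carrying a transplanted tumor received test compound or vehicle alone. The value is the measurement in the treated group divided by that in the vehicle-treated control group.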

NCCCN=c1ccc2c3c1c(O)c1c(O)ccc(=O)c1c3[nH]n2CCNCCO
T/C (endpoint: median survival time, dose: 0.28 mg/kg/injection, schedule: Q03HX008 (ip), vehicle: saline): 162 % of control
T/C (endpoint: median survival time, dose: 0.38 mg/kg/injection, schedule: Q03HX024 (ip), vehicle: saline): 174 % of control
T/C (endpoint: median survival time, dose: 0.45 mg/kg/injection, schedule: Q01DX005 (ip), vehicle: saline): 174 % of control
T/C (endpoint: median survival time, dose: 0.5 mg/kg/injection, schedule: Q01DX009 (ip), vehicle: saline): 241 % of control
T/C (endpoint: median survival time, dose: 0.56 mg/kg/injection, schedule: Q03HX008 (ip), vehicle: saline): 174 % of control
T/C (endpoint: median survival time, dose: 0.75 mg/kg/injection, schedule: Q03HX024 (ip), vehicle: saline): 329 % of control
T/C (endpoint: median survival time, dose: 0.75 mg/kg/injection, schedule: Q04DX003 (ip), vehicle: saline): 231 % of control
T/C (endpoint: median survival time, dose: 0.9 mg/kg/injection, schedule: Q01DX005 (ip), vehicle: saline): 198 % of control
T/C (endpoint: median survival time, dose: 0.9 mg/kg/injection, schedule: Q01DX005 (iv), vehicle: saline): 114 % of control
T/C (endpoint: median survival time, dose: 1.0 mg/kg/injection, schedule: Q01DX009 (ip), vehicle: saline): 217 % of control
T/C (endpoint: median survival time, dose: 1.13 mg/kg/injection, schedule: Q03HX008 (ip), vehicle: saline): 731 % of control
T/C (endpoint: median survival time, dose: 1.5 mg/kg/injection, schedule: Q03HX024 (ip), vehicle: saline): 731 % of control
T/C (endpoint: median survival time, dose: 1.5 mg/kg/injection, schedule: Q04DX003 (ip), vehicle: saline): 186 % of control
T/C (endpoint: median survival time, dose: 1.8 mg/kg/injection, schedule: Q01DX005 (ip), vehicle: saline): 219 % of control
T/C (endpoint: median survival time, dose: 2.0 mg/kg/injection, schedule: Q01DX009 (ip), vehicle: saline): 186 % of control
T/C (endpoint: median survival time, dose: 2.0 mg/kg/injection, schedule: Q01DX009 (ip), vehicle: water): 170 % of control and 365 % of control
T/C (endpoint: median survival time, dose: 2.2 mg/kg/injection, schedule: Q01DX001 (iv), vehicle: water): 103 % of control and 111 % of control
T/C (endpoint: median survival time, dose: 2.25 mg/kg/injection, schedule: Q01DX001 (iv), vehicle: saline): 117 % of control
T/C (endpoint: median survival time, dose: 2.25 mg/kg/injection, schedule: Q03HX008 (ip), vehicle: saline): 280 % of control
T/C (endpoint: median survival time, dose: 3.0 mg/kg/injection, schedule: Q03HX024 (ip), vehicle: saline): 731 % of control
T/C (endpoint: median survival time, dose: 3.0 mg/kg/injection, schedule: Q04DX003 (ip), vehicle: saline): 207 % of control
T/C (endpoint: median survival time, dose: 3.6 mg/kg/injection, schedule: Q01DX005 (ip), vehicle: saline): 426 % of control
T/C (endpoint: median survival time, dose: 3.6 mg/kg/injection, schedule: Q01DX005 (iv), vehicle: saline): 158 % of control
T/C (endpoint: median survival time, dose: 4.0 mg/kg/injection, schedule: Q01DX009 (ip), vehicle: saline): 219 % of control
T/C (endpoint: median survival time, dose: 4.0 mg/kg/injection, schedule: Q01DX009 (ip), vehicle: water): 183 % of control and 192 % of control and 292 % of control
T/C (endpoint: median survival time, dose: 4.5 mg/kg/injection, schedule: Q01DX001 (ip), vehicle: saline): 207 % of control
T/C (endpoint: median survival time, dose: 4.5 mg/kg/injection, schedule: Q01DX001 (ip), vehicle: water): 164 % of control
T/C (endpoint: median survival time, dose: 4.5 mg/kg/injection, schedule: Q01DX001 (iv), vehicle: saline): 123 % of control
T/C (endpoint: median survival time, dose: 4.5 mg/kg/injection, schedule: Q01DX001 (iv), vehicle: water): 108 % of control and 112 % of control
T/C (endpoint: median survival time, dose: 4.5 mg/kg/injection, schedule: Q03HX008 (ip), vehicle: saline): 731 % of control
T/C (endpoint: median survival time, dose: 6.0 mg/kg/injection, schedule: Q03HX024 (ip), vehicle: saline): 731 % of control
T/C (endpoint: median survival time, dose: 6.0 mg/kg/injection, schedule: Q04DX003 (ip), vehicle: saline): 243 % of control
T/C (endpoint: median survival time, dose: 7.2 mg/kg/injection, schedule: Q01DX005 (ip), vehicle: saline): 731 % of control
T/C (endpoint: median survival time, dose: 7.2 mg/kg/injection, schedule: Q01DX005 (iv), vehicle: saline): 187 % of control
T/C (endpoint: median survival time, dose: 8.0 mg/kg/injection, schedule: Q01DX009 (ip), vehicle: saline): 329 % of control
T/C (endpoint: median survival time, dose: 8.0 mg/kg/injection, schedule: Q01DX009 (ip), vehicle: water): 213 % of control and 268 % of control and 333 % of control
T/C (endpoint: median survival time, dose: 8.0 mg/kg/injection, schedule: Q01DX009 (oral), vehicle: saline): 104 % of control
T/C (endpoint: median survival time, dose: 9.0 mg/kg/injection, schedule: Q01DX001 (ip), vehicle: saline): 231 % of control
T/C (endpoint: median survival time, dose: 9.0 mg/kg/injection, schedule: Q01DX001 (ip), vehicle: water): 158 % of control and 183 % of control
T/C (endpoint: median survival time, dose: 9.0 mg/kg/injection, schedule: Q03HX008 (ip), vehicle: saline): 731 % of control
T/C (endpoint: median survival time, dose: 12.0 mg/kg/injection, schedule: Q03HX024 (ip), vehicle: saline): 107 % of control
T/C (endpoint: median survival time, dose: 12.0 mg/kg/injection, schedule: Q04DX003 (ip), vehicle: saline): 731 % of control
T/C (endpoint: median survival time, dose: 14.4 mg/kg/injection, schedule: Q01DX005 (ip), vehicle: saline): 731 % of control
T/C (endpoint: median survival time, dose: 16.0 mg/kg/injection, schedule: Q01DX009 (ip), vehicle: saline): 280 % of control
T/C (endpoint: median survival time, dose: 16.0 mg/kg/injection, schedule: Q01DX009 (ip), vehicle: water): 196 % of control and 337 % of control and 365 % of control
T/C (endpoint: median survival time, dose: 16.0 mg/kg/injection, schedule: Q01DX009 (oral), vehicle: saline): 101 % of control
T/C (endpoint: median survival time, dose: 18.0 mg/kg/injection, schedule: Q01DX001 (ip), vehicle: saline): 268 % of control
T/C (endpoint: median survival time, dose: 18.0 mg/kg/injection, schedule: Q01DX001 (ip), vehicle: water): 216 % of control and 666 % of control
T/C (endpoint: median survival time, dose: 18.0 mg/kg/injection, schedule: Q01DX001 (iv), vehicle: saline): 162 % of control
T/C (endpoint: median survival time, dose: 18.0 mg/kg/injection, schedule: Q03HX008 (ip), vehicle: saline): 365 % of control
T/C (endpoint: median survival time, dose: 24.0 mg/kg/injection, schedule: Q04DX003 (ip), vehicle: saline): 731 % of control
T/C (endpoint: median survival time, dose: 28.8 mg/kg/injection, schedule: Q01DX005 (ip), vehicle: saline): 731 % of control
T/C (endpoint: median survival time, dose: 28.8 mg/kg/injection, schedule: Q01DX005 (iv), vehicle: saline): 104 % of control
T/C (endpoint: median survival time, dose: 32.0 mg/kg/injection, schedule: Q01DX009 (ip), vehicle: saline): 113 % of control
T/C (endpoint: median survival time, dose: 32.0 mg/kg/injection, schedule: Q01DX009 (ip), vehicle: water): 114 % of control and 119 % of control and 88 % of control
T/C (endpoint: median survival time, dose: 32.0 mg/kg/injection, schedule: Q01DX009 (oral), vehicle: saline): 107 % of control
T/C (endpoint: median survival time, dose: 36.0 mg/kg/injection, schedule: Q01DX001 (ip), vehicle: saline): 731 % of control
T/C (endpoint: median survival time, dose: 36.0 mg/kg/injection, schedule: Q01DX001 (ip), vehicle: water): 208 % of control and 466 % of control
T/C (endpoint: median survival time, dose: 36.0 mg/kg/injection, schedule: Q01DX001 (iv), vehicle: saline): 192 % of control
T/C (endpoint: median survival time, dose: 36.0 mg/kg/injection, schedule: Q01DX001 (iv), vehicle: water): 152 % of control
T/C (endpoint: median survival time, dose: 48.0 mg/kg/injection, schedule: Q04DX003 (ip), vehicle: saline): 731 % of control
T/C (endpoint: median survival time, dose: 64.0 mg/kg/injection, schedule: Q01DX009 (ip), vehicle: saline): 90 % of control
T/C (endpoint: median survival time, dose: 64.0 mg/kg/injection, schedule: Q01DX009 (oral), vehicle: saline): 101 % of control
T/C (endpoint: median survival time, dose: 72.0 mg/kg/injection, schedule: Q01DX001 (ip), vehicle: saline): 731 % of control
T/C (endpoint: median survival time, dose: 72.0 mg/kg/injection, schedule: Q01DX001 (ip), vehicle: water): 666 % of control
T/C (endpoint: median survival time, dose: 96.0 mg/kg/injection, schedule: Q04DX003 (ip), vehicle: saline): 219 % of control
T/C (endpoint: median survival time, dose: 128.0 mg/kg/injection, schedule: Q01DX009 (oral), vehicle: saline): 102 % of control
T/C (endpoint: median survival time, dose: 144.0 mg/kg/injection, schedule: Q01DX001 (ip), vehicle: saline): 731 % of control
T/C (endpoint: median survival time, dose: 144.0 mg/kg/injection, schedule: Q01DX001 (ip), vehicle: water): 666 % of control

CC(=O)Nc1cccc2ccccc12
T/C (endpoint: mean survival time, dose: 100.0 mg/kg/injection, schedule: Q01DX009 (ip), vehicle: saline with Tween-80): 95 % of control
T/C (endpoint: mean survival time, dose: 200.0 mg/kg/injection, schedule: Q01DX009 (ip), vehicle: saline with Tween-80): 97 % of control

Cc1ccc(S(=O)(=O)OC(c2ccccc2)C(F)(F)F)cc1 (centres undefined)
T/C (endpoint: mean survival time, dose: 100.0 mg/kg/injection, schedule: Q01DX001 (ip), vehicle: saline with Tween-80): 100 % of control
T/C (endpoint: mean survival time, dose: 200.0 mg/kg/injection, schedule: Q01DX001 (ip), vehicle: saline with Tween-80): 103 % of control
T/C (endpoint: mean survival time, dose: 400.0 mg/kg/injection, schedule: Q01DX001 (ip), vehicle: saline with Tween-80): 94 % of control
